# From US10758534B2 (Vertex Pharmaceuticals Incorporated, priority 2014, dated 2020)
# Target: T1, F508del (Homo sapiens, UniProt P13569, DEL508-508)
# T1 construct: expressed in transfected cells
# Test: Protocol 1: membrane potential optical assay (FLIPR III, voltage sensing dye), identification of potentiator compounds
# Assay type: cell-based
# Conditions: Table 3, compounds of Table 1
# In short: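 Mouse NIH 3T3 fibroblasts stably expressing F508del, temperature-corrected at 27 °C for 24 h, pretreated with compound, then loaded with voltage-sensing redistribution dye. Forskolin was added in a single step with a chloride gradient (chloride-free gluconate bath; Bath Solution #1 HEPES pH 7.4). Membrane-potential fluorescence read on FLIPR III.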
# T1 sequence (P13569 with tags, fused parts or gaps DEL508-508): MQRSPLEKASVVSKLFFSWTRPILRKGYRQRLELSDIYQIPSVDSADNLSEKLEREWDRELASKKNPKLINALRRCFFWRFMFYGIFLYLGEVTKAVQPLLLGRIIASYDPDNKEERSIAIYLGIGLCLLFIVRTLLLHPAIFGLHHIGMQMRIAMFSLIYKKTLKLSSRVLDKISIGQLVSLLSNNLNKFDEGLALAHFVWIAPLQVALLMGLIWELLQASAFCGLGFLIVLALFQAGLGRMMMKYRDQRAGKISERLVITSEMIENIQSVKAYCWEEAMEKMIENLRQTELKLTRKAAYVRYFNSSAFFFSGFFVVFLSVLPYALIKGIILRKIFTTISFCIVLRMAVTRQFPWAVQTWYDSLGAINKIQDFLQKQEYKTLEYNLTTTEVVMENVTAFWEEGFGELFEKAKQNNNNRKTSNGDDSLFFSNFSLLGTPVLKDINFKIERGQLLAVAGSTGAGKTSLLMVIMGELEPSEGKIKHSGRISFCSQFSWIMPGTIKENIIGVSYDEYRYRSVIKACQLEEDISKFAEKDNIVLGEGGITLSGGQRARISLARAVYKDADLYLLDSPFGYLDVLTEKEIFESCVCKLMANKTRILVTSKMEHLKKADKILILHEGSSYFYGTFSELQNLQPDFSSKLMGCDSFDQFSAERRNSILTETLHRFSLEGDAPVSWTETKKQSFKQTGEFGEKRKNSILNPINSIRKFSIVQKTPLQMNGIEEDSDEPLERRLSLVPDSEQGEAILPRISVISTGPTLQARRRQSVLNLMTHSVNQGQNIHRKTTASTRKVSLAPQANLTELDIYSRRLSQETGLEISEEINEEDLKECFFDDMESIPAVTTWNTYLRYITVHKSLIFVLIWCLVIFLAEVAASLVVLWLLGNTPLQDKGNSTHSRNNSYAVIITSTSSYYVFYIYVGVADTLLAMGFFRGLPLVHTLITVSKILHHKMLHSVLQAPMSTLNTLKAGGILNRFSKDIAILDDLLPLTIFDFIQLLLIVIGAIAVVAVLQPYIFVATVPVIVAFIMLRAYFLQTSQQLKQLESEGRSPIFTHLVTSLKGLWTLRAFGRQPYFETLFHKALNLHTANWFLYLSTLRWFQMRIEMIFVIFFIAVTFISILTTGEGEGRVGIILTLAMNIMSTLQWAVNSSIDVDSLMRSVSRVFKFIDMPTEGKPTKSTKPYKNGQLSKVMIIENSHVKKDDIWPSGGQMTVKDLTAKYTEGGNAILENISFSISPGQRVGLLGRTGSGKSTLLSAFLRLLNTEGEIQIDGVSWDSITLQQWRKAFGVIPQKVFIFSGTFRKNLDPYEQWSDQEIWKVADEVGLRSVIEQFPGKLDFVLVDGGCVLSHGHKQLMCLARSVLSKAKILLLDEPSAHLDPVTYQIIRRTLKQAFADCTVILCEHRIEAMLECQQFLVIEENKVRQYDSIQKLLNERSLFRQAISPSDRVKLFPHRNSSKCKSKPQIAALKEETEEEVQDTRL
row,Compound,EC30
1,"CC(C)COc1cccc(-c2ccc(C(=O)NS(=O)(=O)c3ccc[nH]c3=O)c(N3CCC(C)CC3)n2)c1 [Compound 958, 6-(3-isobutoxyphenyl)-2-(4-methyl-1-piperidyl)-N-[(2-oxo-1H-pyridin-3-yl)sulfonyl]pyridine-3-carboxamide]",+++ (“+++” means <3 uM)
2,"COc1cc(C(C)(C)C)nc(Oc2c(C)cc(C)cc2C)c1C(=O)NS(=O)(=O)c1cccc(N)c1 [Compound 959, N-(3-aminophenyl)sulfonyl-6-tert-butyl-4-methoxy-2-(2,4,6-trimethylphenoxy)pyridine-3-carboxamide]",+++ (“+++” means <3 uM)
3,"CCOC1CCCN(c2nc(-c3ccc(OC(C)C)nc3)ccc2C(=O)NS(=O)(=O)c2cccc(N)n2)C1 (centres unmarked) [Compound 960, N-[(6-amino-2-pyridyl)sulfonyl]-2-(3-ethoxy-1-piperidyl)-6-(6-isopropoxy-3-pyridyl)pyridine-3-carboxamide]",++ (“++” means between 3 uM and 10 uM)
4,"CC(C)COc1cc(F)cc(-c2ccc(C(=O)NS(=O)(=O)c3cccc(N)n3)c(OC3CCC(F)(F)CC3)n2)c1 [Compound 961, N-[(6-amino-2-pyridyl)sulfonyl]-2-(4,4-difluorocyclohexoxy)-6-(3-fluoro-5-isobutoxy-phenyl)pyridine-3-carboxamide]",+++ (“+++” means <3 uM)
5,"Cc1cc(C)c(Oc2nc(-c3ccc(CN(C)C)cc3)ccc2C(=O)NS(=O)(=O)c2cccc(N)n2)c(C)c1 [Compound 962, N-[(6-amino-2-pyridyl)sulfonyl]-6-[4-(dimethylaminomethyl)phenyl]-2-(2,4,6-trimethylphenoxy)pyridine-3-carboxamide]",++ (“++” means between 3 uM and 10 uM)
6,"CCc1ccc(C(=O)NS(=O)(=O)c2cccc(N)n2)c(Oc2c(C)cc(C)cc2C)n1 [Compound 963, N-[(6-amino-2-pyridyl)sulfonyl]-6-ethyl-2-(2,4,6-trimethylphenoxy)pyridine-3-carboxamide]",++ (“++” means between 3 uM and 10 uM)
7,"CCCCOc1cccc(-c2ccc(C(=O)NS(=O)(=O)c3ccc[nH]c3=O)c(Oc3c(C)cc(C)cc3C)n2)c1Cl [Compound 964, 6-(3-butoxy-2-chloro-phenyl)-N-[(2-oxo-1H-pyridin-3-yl)sulfonyl]-2-(2,4,6-trimethylphenoxy)pyridine-3-carboxamide]",+++ (“+++” means <3 uM)
8,"CC1CN(c2nc(-c3cnc(OC(C)C)cn3)ccc2C(=O)NS(=O)(=O)c2cccc(N)n2)C(C)(C)C1 (centres unmarked) [Compound 965, N-[(6-amino-2-pyridyl)sulfonyl]-6-(5-isopropoxypyrazin-2-yl)-2-(2,2,4-trimethylpyrrolidin-1-yl)pyridine-3-carboxamide]",+++ (“+++” means <3 uM)
9,"Cc1cc(C)c(Oc2nc(N3CCOCC3)ccc2C(=O)NS(=O)(=O)c2cccc(N)n2)c(C)c1 [Compound 966, N-[(6-amino-2-pyridyl)sulfonyl]-6-morpholino-2-(2,4,6-trimethylphenoxy)pyridine-3-carboxamide]",+ (“+” means greater than 10 uM)
10,"CC(C)COc1cc(F)cc(-c2ccc(C(=O)NS(=O)(=O)c3cccc(N)n3)c(OC(C)Cc3ccccc3)n2)c1 (centres unmarked) [Compound 967, N-[(6-amino-2-pyridyl)sulfonyl]-6-(3-fluoro-5-isobutoxy-phenyl)-2-(1-methyl-2-phenyl-ethoxy)pyridine-3-carboxamide]",+++ (“+++” means <3 uM)
11,"Cc1cc(C)c(Oc2nc(OC(C)C)ccc2C(=O)NS(=O)(=O)c2cccc(N)n2)c(C)c1 [Compound 968, N-[(6-amino-2-pyridyl)sulfonyl]-6-isopropoxy-2-(2,4,6-trimethylphenoxy)pyridine-3-carboxamide]",+++ (“+++” means <3 uM)
12,"CC(C)COc1cc(F)cc(-c2ccc(C(=O)NS(=O)(=O)c3cccc(N)n3)c(N3CCC(Cc4ccccc4)C3C)n2)c1 (centres unmarked) [Compound 969, N-[(6-amino-2-pyridyl)sulfonyl]-2-(3-benzyl-2-methyl-pyrrolidin-1-yl)-6-(3-fluoro-5-isobutoxy-phenyl)pyridine-3-carboxamide]",+++ (“+++” means <3 uM)
13,"CCC1(CC)CCCN(c2nc(-c3ccc(OC(C)C)nc3)ccc2C(=O)NS(=O)(=O)c2cccc(N)n2)C1 [Compound 971, N-[(6-amino-2-pyridyl)sulfonyl]-2-(3,3-diethyl-1-piperidyl)-6-(6-isopropoxy-3-pyridyl)pyridine-3-carboxamide]",+++ (“+++” means <3 uM)
14,"CC1CN(c2nc(-c3cc(F)cc(OC(C)C)c3)ccc2C(=O)NS(=O)(=O)c2cccc(N)n2)C(C)(C)C1 (centres unmarked) [Compound 972, N-[(6-amino-2-pyridyl)sulfonyl]-6-(3-fluoro-5-isopropoxy-phenyl)-2-(2,2,4-trimethylpyrrolidin-1-yl)pyridine-3-carboxamide]",+++ (“+++” means <3 uM)
15,"CC(C)COc1cc(F)cc(-c2ccc(C(=O)NS(=O)(=O)c3cccc(N)n3)c(N3CCC4(CC3)CC4)n2)c1 [Compound 973, N-[(6-amino-2-pyridyl)sulfonyl]-2-(6-azaspiro[2.5]octan-6-yl)-6-(3-fluoro-5-isobutoxy-phenyl)pyridine-3-carboxamide]",+++ (“+++” means <3 uM)
16,"COCC1CCN(c2nc(-c3cc(F)cc(OCC(C)C)c3)ccc2C(=O)NS(=O)(=O)c2ccn[nH]2)CC1 [Compound 975, 6-(3-fluoro-5-isobutoxy-phenyl)-2-[4-(methoxymethyl)-1-piperidyl]-N-(1H-pyrazol-5-ylsulfony)pyridine-3-carboxamide]",++ (“++” means between 3 uM and 10 uM)
17,"CC(C)COc1cc(F)cc(-c2ccc(C(=O)NS(=O)(=O)c3cccc(N)n3)c(OC3C(C)CCCC3C)n2)c1 (centres unmarked) [Compound 978, N-[(6-amino-2-pyridyl)sulfonyl]-2-(2,6-dimethylcyclohexoxy)-6-(3-fluoro-5-isobutoxy-phenyl)pyridine-3-carboxamide]",+++ (“+++” means <3 uM)
18,"CC(C)COc1cc(F)cc(-c2ccc(C(=O)NS(=O)(=O)c3ccn[nH]3)c(N3Cc4ccccc4C3)n2)c1 [Compound 981, 6-(3-fluoro-5-isobutoxy-phenyl)-2-isoindolin-2-yl-N-(1H-pyrazol-5-ylsulfonyl)pyridine-3-carboxamide]",++ (“++” means between 3 uM and 10 uM)

# Continued, values first:
row,EC30,Compound
1,+++ (“+++” means <3 uM),"Cc1cc(C)c(Oc2nc(-c3cccc4c3OCO4)ccc2C(=O)NS(=O)(=O)c2cccc(N)n2)c(C)c1 [Compound 974, N-[(6-amino-2-pyridyl)sulfonyl]-6-(1,3-benzodioxol-4-yl)-2-(2,4,6-trimethylphenoxy)pyridine-3-carboxamide]"
2,++ (“++” means between 3 uM and 10 uM),"Cc1cc(C)c(Oc2nc(C3=CCOCC3)ccc2C(=O)NS(=O)(=O)c2cccc(N)n2)c(C)c1 [Compound 976, N-[(6-amino-2-pyridyl)sulfonyl]-6-(3,6-dihydro-2H-pyran-4-yl)-2-(2,4,6-trimethylphenoxy)pyridine-3-carboxamide]"
3,++ (“++” means between 3 uM and 10 uM),"Cc1cc(C)c(Oc2nc(-c3cccc4[nH]ccc34)ccc2C(=O)NS(=O)(=O)c2cccc(N)n2)c(C)c1 [Compound 977, N-[(6-amino-2-pyridyl)sulfonyl]-6-(1H-indol-4-yl)-2-(2,4,6-trimethylphenoxy)pyridine-3-carboxamide]"
4,+++ (“+++” means <3 uM),"CC(C)Oc1ccc(-c2ccc(C(=O)NS(=O)(=O)c3cccc(N)n3)c(N3CCC(C)C(C)C3)n2)cn1 (centres unmarked) [Compound 979, N-[(6-amino-2-pyridyl)sulfonyl]-2-(3,4-dimethyl-1-piperidyl)-6-(6-isopropoxy-3-pyridyl)pyridine-3-carboxamide]"
5,++ (“++” means between 3 uM and 10 uM),"COc1ccc(-c2ccc(C(=O)NS(=O)(=O)c3ccc[nH]c3=O)c(Oc3c(C)cc(C)cc3C)n2)cc1 [Compound 980, 6-(4-methoxyphenyl)-N-[(2-oxo-1H-pyridin-3-yl)sulfonyl]-2-(2,4,6-trimethylphenoxy)pyridine-3-carboxamide]"
6,++ (“++” means between 3 uM and 10 uM),"Cc1cc(C)c(Oc2nc(C)ccc2C(=O)NS(=O)(=O)c2cccc(NCCCN)n2)c(C)c1 [Compound 982, N-[[6-(3-aminopropylamino)-2-pyridyl]sulfonyl]-6-methyl-2-(2,4,6-trimethylphenoxy)pyridine-3-carboxamide]"
7,++ (“++” means between 3 uM and 10 uM),"CNc1ccc(C(=O)NS(=O)(=O)c2cccc(N)n2)c(Oc2c(C)cc(C)cc2C)n1 [Compound 983, N-[(6-amino-2-pyridyl)sulfonyl]-6-(methylamino)-2-(2,4,6-trimethylphenoxy)pyridine-3-carboxamide]"
8,+++ (“+++” means <3 uM),"COc1cc(F)c(-c2ccc(C(=O)NS(=O)(=O)c3cccc(N)n3)c(Oc3c(C)cc(C)cc3C)n2)cc1F [Compound 984, N-[(6-amino-2-pyridyl)sulfonyl]-6-(2,5-difluoro-4-methoxy-phenyl)-2-(2,4,6-trimethylphenoxy)pyridine-3-carboxamide]"
9,+++ (“+++” means <3 uM),"C[C@@H]1CN(c2nc(C(C)(C)C)ccc2C(=O)NS(=O)(=O)c2cccc(N)n2)C(C)(C)C1 [Compound 985, N-[(6-amino-2-pyridyl)sulfonyl]-6-tert-butyl-2-[(4S)-2,2,4-trimethylpyrrolidin-1-yl]pyridine-3-carboxamide]"
10,++ (“++” means between 3 uM and 10 uM),"COCC1CCN(c2nc(C(C)(C)C)ccc2C(=O)NS(=O)(=O)c2cccc(N)n2)CC1 [Compound 986, N-[(6-amino-2-pyridyl)sulfonyl]-6-tert-butyl-2-[4-(methoxymethyl)-1-piperidyl]pyridine-3-carboxamide]"
11,+++ (“+++” means <3 uM),"CC(C)Oc1ccc(-c2ccc(C(=O)NS(=O)(=O)c3cccc(N)n3)c(N3CCCC34CCC4)n2)cn1 [Compound 987, N-[(6-amino-2-pyridyl)sulfonyl]-2-(8-azaspiro[3.4]octan-8-yl)-6-(6-isopropoxy-3-pyridyl)pyridine-3-carboxamide]"
